Reference: patent US20170073337A1, “DIHYDROTHIAZINE AND DIHYDROOXAZINE DERIVATIVES HAVING BACE1 INHIBITORY ACTIVITY” (Shionogi & Co., Ltd., priority 2014, published 2017)
Values after ≈ are worked out from the molar mass of the structure shown. Where two headings read alike, the source gives them in different places.

Assays:
CYP3A4 = biological target: T1, CYP3A4 (Homo sapiens, UniProt P08684); assay: CYP inhibition test (CYP3A4); type: in vitro ADME; conditions: pooled human liver microsomes; terfenadine hydroxylation
T1 construct: The commercially available pooled human liver microsomes are used as an enzyme resource; from tissue; host or cells: pooled human liver microsomes
T1 sequence (P08684 whole entry): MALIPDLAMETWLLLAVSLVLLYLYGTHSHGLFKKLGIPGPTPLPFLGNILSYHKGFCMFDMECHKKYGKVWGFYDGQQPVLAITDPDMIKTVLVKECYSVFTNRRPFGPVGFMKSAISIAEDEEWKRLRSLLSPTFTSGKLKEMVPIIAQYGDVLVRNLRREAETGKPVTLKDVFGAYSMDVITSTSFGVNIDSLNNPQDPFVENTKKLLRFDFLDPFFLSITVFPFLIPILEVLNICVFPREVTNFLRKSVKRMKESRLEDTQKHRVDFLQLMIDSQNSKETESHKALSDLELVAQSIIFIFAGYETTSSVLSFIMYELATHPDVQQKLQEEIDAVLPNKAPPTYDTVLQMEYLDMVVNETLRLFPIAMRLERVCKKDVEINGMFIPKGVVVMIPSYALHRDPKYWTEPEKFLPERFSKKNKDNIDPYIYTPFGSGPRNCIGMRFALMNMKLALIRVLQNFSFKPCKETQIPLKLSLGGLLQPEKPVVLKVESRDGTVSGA
From the text: (§1) The CYP inhibition test is a test to assess the inhibitory effect of a compound of the present invention towards typical substrate metabolism reactions on CYP enzymes in human liver microsomes. The marker reactions on human main five CYP enzymes (CYP1A2, 2C9, 2C19, 2D6, and 3A4) are used as follows: 7-ethoxyresorufin O-deethylation (CYP1A2), tolbutamide methyl-hydroxylation (CYP2C9), mephenytoin 4′-hydroxylation (CYP2C19), dextromethorphan O-demethylation (CYP2D6), and terfenadine hydroxylation (CYP3A4). The commercially available pooled human liver microsomes are used as an enzyme resource.
(§2) The reaction conditions were as follows: substrate, 0.5 μmol/L ethoxyresorufin (CYP1A2), 100 μmol/L tolbutamide (CYP2C9), 50 μmol/L, S-mephenytoin (CYP2C19), 5 μmol/L dextromethorphan (CYP2D6), 1 μmol/L terfenadine (CYP3A4): reaction time, 15 minutes: reaction temperature, 37° C.; enzyme, pooled human liver microsomes 0.2 mg protein/mL; concentrations of the compound of the present invention, 1, 5, 10, 20 μmol/L (four points).
(§3) Five kinds of substrates, human liver microsomes, and a compound solution of the present invention in […] Hepes buffer were added to a 96-well plate at the composition as described above as a reaction solution. NADPH as a cofactor was added to this 96-well plate in order to initiate metabolism reactions. After the incubation at 37° C.for […], a methanol/acetonitrile=1/1 (v/v) solution was added to stop the reaction. After the centrifugation at 3000 rpm for 15 minutes, resorufin (CYP1A2 metabolite) in the supernatant was quantified by a fluorescent plate reader, and hydroxytolbutamide (CYP2C9 metabolite), 4′-hydroxymephenytoin (CYP2C19 metabolite), dextrorphan (CYP2D6 metabolite), and terfenadine alcohol metabolite (CYP3A4 metabolite) in the supernatant were quantified by LC/MS/MS.
(§4) The sample adding DMSO to a reaction system instead of compound of the present invention solution was adopted as a control (100%) because DMSO was used as a solvent to dissolve a compound of the present invention. Remaining activity (%) was calculated at each concentration of a compound of the present invention, and IC50 value was calculated by reverse presumption by a logistic model using a concentration and an inhibition rate.

[1] = biological target: T2, human ether-a-go-go related gene (hERG) channel (Homo sapiens, UniProt Q12809); assay: hERG test; type: cell-based; conditions: % inhibition of IKr tail peak current at 3 uM; CHO cells expressing hERG
T2 construct: expressed in transfected cells; host or cells: CHO cells
T2 sequence (Q12809 whole entry): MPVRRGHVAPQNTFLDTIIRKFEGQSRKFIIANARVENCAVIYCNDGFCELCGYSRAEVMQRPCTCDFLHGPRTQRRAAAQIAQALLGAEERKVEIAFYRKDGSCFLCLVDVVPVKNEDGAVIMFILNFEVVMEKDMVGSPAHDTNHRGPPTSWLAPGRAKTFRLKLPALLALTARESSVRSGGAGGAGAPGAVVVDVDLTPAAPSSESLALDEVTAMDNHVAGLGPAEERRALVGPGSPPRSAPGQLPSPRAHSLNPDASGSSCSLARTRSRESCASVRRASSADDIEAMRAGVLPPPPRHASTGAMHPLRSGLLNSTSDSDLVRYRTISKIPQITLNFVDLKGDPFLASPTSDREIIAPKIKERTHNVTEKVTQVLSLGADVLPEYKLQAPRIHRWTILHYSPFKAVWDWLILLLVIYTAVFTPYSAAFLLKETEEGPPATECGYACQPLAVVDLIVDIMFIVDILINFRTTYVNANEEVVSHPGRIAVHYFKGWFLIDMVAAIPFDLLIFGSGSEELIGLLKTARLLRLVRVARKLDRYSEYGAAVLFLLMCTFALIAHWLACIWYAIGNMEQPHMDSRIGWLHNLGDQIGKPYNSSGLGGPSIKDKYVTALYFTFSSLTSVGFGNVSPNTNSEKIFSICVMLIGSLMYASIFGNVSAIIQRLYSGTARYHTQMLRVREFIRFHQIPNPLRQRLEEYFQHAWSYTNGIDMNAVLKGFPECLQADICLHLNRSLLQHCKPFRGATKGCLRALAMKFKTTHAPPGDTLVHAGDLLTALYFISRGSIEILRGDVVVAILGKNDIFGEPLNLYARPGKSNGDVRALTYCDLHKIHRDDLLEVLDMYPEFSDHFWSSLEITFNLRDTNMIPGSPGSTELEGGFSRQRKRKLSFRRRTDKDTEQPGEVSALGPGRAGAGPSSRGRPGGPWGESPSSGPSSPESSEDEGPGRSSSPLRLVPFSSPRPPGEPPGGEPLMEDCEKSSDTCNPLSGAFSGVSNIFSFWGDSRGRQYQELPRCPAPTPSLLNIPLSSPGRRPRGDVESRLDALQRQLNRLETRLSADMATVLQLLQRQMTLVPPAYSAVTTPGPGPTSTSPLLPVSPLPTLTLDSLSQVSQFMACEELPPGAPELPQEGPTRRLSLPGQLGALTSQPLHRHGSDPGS
From the text: For the purpose of assessing risk of an electrocardiogram QT interval prolongation, effects on delayed rectifier K+ current (IKr), which plays an important role in the ventricular repolarization process of the compound of the present invention, was studied using CHO cells expressing human ether-a-go-go related gene (hERG) channel.
A cell was retained at a membrane potential of […] by whole cell patch clamp method using an automated patch clamp system (QPatch:Sophion Bioscience A/S). After application of leak potential at −50 mV, IKr induced by depolarization pulse stimulation at +20 mV for 2 seconds and, further, repolarization pulse stimulation at −50 mV for 2 seconds was recorded.

CYP1A2 = biological target: T3, CYP1A2 (Homo sapiens, UniProt P05177); assay: CYP inhibition test (CYP1A2); type: in vitro ADME; conditions: pooled human liver microsomes; 7-ethoxyresorufin O-deethylation
T3 construct: The commercially available pooled human liver microsomes are used as an enzyme resource; from tissue; host or cells: pooled human liver microsomes
T3 sequence (P05177 1-516): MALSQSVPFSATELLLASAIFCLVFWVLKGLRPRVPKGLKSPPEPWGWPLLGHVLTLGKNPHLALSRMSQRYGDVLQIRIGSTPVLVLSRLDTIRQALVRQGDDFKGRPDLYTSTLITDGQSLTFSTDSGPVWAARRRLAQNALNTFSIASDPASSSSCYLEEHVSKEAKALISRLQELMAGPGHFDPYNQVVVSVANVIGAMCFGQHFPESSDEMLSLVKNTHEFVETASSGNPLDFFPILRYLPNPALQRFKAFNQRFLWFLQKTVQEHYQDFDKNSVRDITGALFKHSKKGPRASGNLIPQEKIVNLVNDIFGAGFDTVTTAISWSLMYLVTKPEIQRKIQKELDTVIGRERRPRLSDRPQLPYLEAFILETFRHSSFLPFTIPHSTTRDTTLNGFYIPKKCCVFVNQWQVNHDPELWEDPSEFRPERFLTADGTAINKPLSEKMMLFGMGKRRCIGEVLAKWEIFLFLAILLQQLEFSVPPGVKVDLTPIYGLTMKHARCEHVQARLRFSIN
From the text: as §1, §2, §3, §4

CYP2C9 = biological target: T4, CYP2C9 (Homo sapiens, UniProt P11712); assay: CYP inhibition test (CYP2C9); type: in vitro ADME; conditions: pooled human liver microsomes; tolbutamide methyl-hydroxylation
T4 construct: The commercially available pooled human liver microsomes are used as an enzyme resource; from tissue; host or cells: pooled human liver microsomes
T4 sequence (P11712 whole entry): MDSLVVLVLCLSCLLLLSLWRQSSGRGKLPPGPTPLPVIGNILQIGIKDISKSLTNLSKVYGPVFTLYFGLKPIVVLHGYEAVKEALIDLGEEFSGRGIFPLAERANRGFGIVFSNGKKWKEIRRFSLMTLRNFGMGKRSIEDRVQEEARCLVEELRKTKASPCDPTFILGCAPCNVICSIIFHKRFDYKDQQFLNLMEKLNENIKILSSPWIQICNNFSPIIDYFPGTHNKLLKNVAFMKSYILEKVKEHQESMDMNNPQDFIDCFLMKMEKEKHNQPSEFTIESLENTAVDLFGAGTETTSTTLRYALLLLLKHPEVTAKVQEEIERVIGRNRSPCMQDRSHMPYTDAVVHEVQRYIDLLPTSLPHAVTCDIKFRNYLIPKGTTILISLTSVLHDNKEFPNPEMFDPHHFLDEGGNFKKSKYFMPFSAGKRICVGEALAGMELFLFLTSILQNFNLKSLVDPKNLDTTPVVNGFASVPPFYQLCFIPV
From the text: as §1, §2, §3, §4

Solubility test = type: physicochemical; conditions: for solubility kinetic at 1 h: kinetic from dmso stock; for solubility kinetic at 16 h: solubility in JP 2nd fluid B, 1% DMSO, *2: shaken for 1 hour at room temperature
Procedure: A 10 mmol/L solution of the compound was prepared with DMSO, and 2 μL of the compound of the present invention solution was added, respectively, to 198 μL of JP 1st fluid (water was added to 2.0 g of sodium chloride and 7.0 ml, of hydrochloric acid to reach 1000 mL) and JP 2nd fluid (See Table 4). The mixture was left standing for 16 hours at 25° C. or shaken for 1 hour at ruom temperature, and the mixture was vacuum-filtered. The […] was ten or one hundred-fold diluted with metbanol/water=1/1 (v/v) or MeCN/MeOH/H2O(=1/1/2), and the compound concent ration in the filtrate was measured with LC/MS or solid phase extraction (SPE)/MS by the absolute calibration method.

[2] = system: Aβ production in neuroblastoma SH-SY5Y cells (SH/APPwt); assay: β-amyloid (Aβ) production inhibitory effect in cell: 384-well; type: cell-based; conditions: Homo sapiens, Assay format 384-well
Procedure: Neuroblastoma SH-SY5Y cells (SH/APPwt) with human wild-type β-APT excessively expressed therein were prepared at 4×10^5 cells/mL, and 50 μl portions thereof were inoculated into each well of a 384-well culture plate (Corning) added 0.5 μl of the test compound of the present invention (DMSO solution). The final DMSO concentration was 1%, and the amount of the cell culture was 50 μl. After the incubation was performed for 21 hours from the cell seeding, 5 μl of the culture supernatant was collected from each fraction. The amount of the Aβ in each fraction was measured.
The Aβ amount was measured as follows. 5 μl of a homogeneous time resolved fluoresrenee (HTRF) measurement reagent (Amyloid β1-40 peptide; CIS bio international) and 5 μl of the culture supernatant were put into a 384′well plate (a black plate: Corning) and mixed with each other, and then left standing overnight at 4° C. while the light was shielded. Then, the fluorescence intensity (620 nm and 665 nm) was measured with EnViston (Perkin Elmer life sciences).

CYP2C19 = biological target: T5, CYP2C19 (Homo sapiens, UniProt P33261); assay: CYP inhibition test (CYP2C19); type: in vitro ADME; conditions: pooled human liver microsomes; mephenytoin 4′-hydroxylation
T5 construct: The commercially available pooled human liver microsomes are used as an enzyme resource; from tissue; host or cells: pooled human liver microsomes
T5 sequence (P33261 whole entry): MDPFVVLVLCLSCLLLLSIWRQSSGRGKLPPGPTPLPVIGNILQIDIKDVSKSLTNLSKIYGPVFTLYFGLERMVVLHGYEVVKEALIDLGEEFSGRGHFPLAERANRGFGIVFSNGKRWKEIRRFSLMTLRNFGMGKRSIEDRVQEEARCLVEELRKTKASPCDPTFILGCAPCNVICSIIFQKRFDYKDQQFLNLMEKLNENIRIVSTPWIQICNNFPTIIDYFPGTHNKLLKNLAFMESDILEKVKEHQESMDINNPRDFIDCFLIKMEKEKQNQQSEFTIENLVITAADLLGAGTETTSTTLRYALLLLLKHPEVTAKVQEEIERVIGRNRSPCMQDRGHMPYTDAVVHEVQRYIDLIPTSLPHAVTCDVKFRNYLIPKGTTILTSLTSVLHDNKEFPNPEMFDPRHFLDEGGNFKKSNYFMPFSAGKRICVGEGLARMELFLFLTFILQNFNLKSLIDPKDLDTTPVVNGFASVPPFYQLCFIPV
From the text: as §1, §2, §3, §4

Recombinant human BACE1 = biological target: T6, Recombinant human BACE1 (Homo sapiens, UniProt P56817); assay: Assay of BACE1 inhibitory activity: 384-well; type: biochemical; conditions: Assay format 384-well
T6 construct: purchased R&D Systems
T6 sequence (P56817 46-501): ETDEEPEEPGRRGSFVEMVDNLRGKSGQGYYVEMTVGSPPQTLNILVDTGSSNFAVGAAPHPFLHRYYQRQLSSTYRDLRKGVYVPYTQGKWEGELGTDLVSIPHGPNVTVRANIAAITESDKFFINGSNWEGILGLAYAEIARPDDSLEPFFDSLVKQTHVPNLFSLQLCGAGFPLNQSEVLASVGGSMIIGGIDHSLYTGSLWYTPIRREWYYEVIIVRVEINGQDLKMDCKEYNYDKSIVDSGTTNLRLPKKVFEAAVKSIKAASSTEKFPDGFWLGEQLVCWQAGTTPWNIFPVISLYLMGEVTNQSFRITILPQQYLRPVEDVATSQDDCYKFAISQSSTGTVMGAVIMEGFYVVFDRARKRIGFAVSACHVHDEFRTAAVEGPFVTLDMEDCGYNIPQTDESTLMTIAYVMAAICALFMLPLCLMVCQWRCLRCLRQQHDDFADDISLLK
Procedure: 5 μL of substrate peptide solution (Biotin-XSEVNLDAEFRHDSGC-Eu: X=ε-amino-n-capronic acid, Eu=Europium eryplate) was added to each well of 384-well plate (a black plate: Corning), and after addition of 0.1 μl of the compound of the present invention (DMSO solution) and 5 μl of Recombinant human BACE1 (R&D Systems), the reaction mixture was incubated at 25° C. for 2 hours. The substrate peptide was synthesized by reacting Cryptate TBPCOOH mono SMP (CIS bio international) with Biotin-XSEVNLDAEFRHDSGC (Peptide Institute, Inc.).
After the incubation for reaction, 10 μl of 8.0 μg/ml Streptavidin-XL665 (CIS bio International) dissolved in phosphate buffer (150 mmol/L K2HPO4-KH2PO4, pH 7.0, 0.008% Triton X-100, 0.8 mol/L KF) was added to each well and left stand at 25° C. for 30 minutes.

Metabolic stability test = type: in vitro ADME; conditions: human liver microsomes, 37° C., 30 minutes, NADPH
Procedure: Using a commercially available pooled human liver microsomes, a compound of the present invention was reacted for a constant time, a remaining rate was calculated by comparing a reacted sample and an unreacted sample, thereby, a degree of metabolism in liver was assessed.
A reaction was performed (oxidative reaction) at 37° C. for 0 minute or 30 minutes in the presence of 1 mmol/L NADPH in 0.2 mL of a buffer (60 mmol/L Tris-HCl pH 7.4, 150 mmol/L potassium chloride, 10 mmol/L magnesium chloride) containing 0.5 mg protein/mL of human liver microsomes. After the reaction, 50 μL of the reaction solution was added to 100 μL of a methanol/acetonltrile=1/1 (v/v), mixed and centrifuged at 3000 rpm for 15 minutes. The compound of the present invention in the supernatant was quantified by LC/MS/MS or solid phase extraction (SPE)/MS, and a remaining amount of the compound of the present invention after the reaction area calculated, letting a compound amount at 0 minute reaction time to be 100%.

[3] = JP 1st fluid, pH 1.2, simulated gastric fluid, read-out: JP1
[4] = JP 2nd fluid B, pH 6.8, aqueous buffer, read-out: JP2_μM

| Compound | IC50 (CYP3A4) [nM] | IC50 (CYP1A2) [nM] | IC50 (CYP2C9) [nM] | solubility kinetic at 1 h (Solubility test; [3]) [µM] | solubility kinetic at 16 h (Solubility test; read-out: JP2_μM) [µM] | IC50 [2] [nM] | IC50 (CYP2C19) [nM] | IC50 (Recombinant human BACE1) [nM] | remaining % (Metabolic stability test) [%] | solubility kinetic at 1 h (Solubility test; [4]) [µM] | hERG_3 uM_% [1] [%] |
| --- | --- | --- | --- | --- | --- | --- | --- | --- | --- | --- | --- |
| C[C@]1(c2cc(NC(=O)c3cnc(OCF)cn3)ccc2F)N=C(N)SCC12CC(F)(F)C2 [Compound I-56] | ≥ 10000 | ≥ 20000 | ≥ 20000 | > 50 | >50 | 0.53 | ≥ 20000 |  |  |  | 37.6 |
| C[C@]1(c2cc(NC(=O)c3ccc(F)cn3)ccc2F)N=C(N)SCC12CC(F)(F)C2 [Compound I-61] | ≥ 10000 | ≥ 20000 | ≥ 20000 | > 50 | >50 | 1.3 | ≥ 20000 | 15.4 | 71.5 |  |  |
| CC[C@H]1SC(N)=N[C@](C)(c2cc(NC(=O)c3ncc(C#N)cc3C)ccc2F)[C@H]1F [Compound I-68] | ≥ 10000 | ≥ 20000 |  | > 50 |  | 0.41 | ≥ 20000 | 11.6 |  | 9.1 (≈ 3.91 µg/mL) |  |
| CCOc1cnc(C(=O)Nc2ccc(F)c([C@@]3(C)N=C(N)S[C@H](C)[C@@H]3F)c2)cn1 [Compound I-84] |  | ≥ 20000 |  | > 50 |  | 2.3 | ≥ 20000 | 12.9 |  | 49.4 (≈ 20.8 µg/mL) | 28.8 |
| [2H]C([2H])([2H])Oc1cnc(C(=O)Nc2ccc(F)c([C@@]3(C)N=C(N)S[C@H](C)[C@@H]3F)c2)cn1 [Compound I-111] | ≥ 20000 | ≥ 20000 |  | 48.4 (≈ 19.9 µg/mL) |  | 0.97 | ≥ 20000 | 10.3 | 64.9 | > 50 |  |

Further lines, with some results ahead:

| IC50 (CYP3A4) [nM] | IC50 (CYP1A2) [nM] | IC50 (CYP2C9) [nM] | solubility kinetic at 1 h (Solubility test; [3]) [µM] | solubility kinetic at 16 h (Solubility test; read-out: JP2_μM) [µM] | IC50 [2] [nM] | IC50 (CYP2C19) [nM] | IC50 (Recombinant human BACE1) [nM] | remaining % (Metabolic stability test) [%] | solubility kinetic at 1 h (Solubility test; [4]) [µM] | Compound | hERG_3 uM_% [1] [%] |
| --- | --- | --- | --- | --- | --- | --- | --- | --- | --- | --- | --- |
| ≥ 10000 |  |  | > 50 | >50 | 0.42 |  | 9.24 | 77.6 |  | CC[C@H]1SC(N)=N[C@](C)(c2cc(NC(=O)c3ccc(C#N)cn3)ccc2F)[C@H]1F [Compound I-69] |  |
| ≥ 20000 | ≥ 20000 |  | > 50 | >50 | 1 | ≥ 20000 | 8.27 | 81 |  | COC[C@H]1SC(N)=N[C@](C)(c2cc(NC(=O)c3ccc(C#N)cn3)ccc2F)[C@H]1F [Compound I-92] |  |
|  | ≥ 20000 |  | > 50 |  | 28 | ≥ 20000 | 44.5 | 82.2 | 6.1 (≈ 2.85 µg/mL) | COc1ccc(C(=O)Nc2ccc(F)c([C@@]3(C)N=C(N)O[C@H](C(F)(F)C4CC4)[C@@H]3F)c2)nc1 [Compound I-93] |  |
|  |  |  |  |  | 3.5 |  |  |  |  | C[C@]1(c2cc(NC(=O)c3cnc(OCF)cn3)ccc2F)N=C(N)O[C@H](C2(F)CC2)[C@@H]1F [Compound I-94] |  |
| ≥ 20000 | ≥ 20000 |  | > 50 | >50.0 | 2.5 | ≥ 20000 | 10.5 |  |  | COc1cnc(C(=O)Nc2ccc(F)c([C@@]3(C)N=C(N)O[C@H](C4(F)CC4)[C@@H]3F)c2)cn1 [Compound I-97] |  |
| ≥ 20000 | ≥ 20000 |  | > 50 | >50.0 | 13 | ≥ 20000 | 26 | 60.2 |  | COc1ccc(C(=O)Nc2ccc(F)c([C@@]3(C)N=C(N)O[C@H](C4(F)CC4)[C@@H]3F)c2)nc1 [Compound I-100] |  |
